A short description of the series: in vitro. Particulars: rat, gh3-tre-luc cells.

Structures can show the parent of a compound that is named as a salt. Some results are limits rather than exact numbers.

Take `CCN(CC)CCCC(C)Nc1c2ccc(Cl)cc2nc2ccc(OC)cc12` (stereo not drawn) [Quinacrine dihydrochloride dihydrate]: the 50% cytotoxic concentration (CC50) (as a rule, the concentration giving 50% cytotoxicity) at 24 h (AC50 (uM) modified / 1000) was more than 50 µM.
Compound `O=S1(=O)CC=CC1` [3-Sulfolene] showed a cytotoxic concentration (CC50) at 24 h (AC50 (uM) modified / 1000) of more than 90 µM.
`O=C(O)CCC(=O)C(=O)O` [alpha-Ketoglutaric acid] displayed a CC50 at 24 h (AC50 (uM) modified / 1000) of more than 90 µM.
Regarding `CCC(C(=O)NC(N)=O)c1ccccc1` (stereo not drawn) [Ethylphenylacetylurea], for the setting “AC50 (uM) modified / 1000”, the 50% cytotoxic concentration (CC50) at 24 h is more than 90 µM.
On the same count and under the same terms, the figure for `CN(C)c1nc(=O)n(C2CCCCC2)c(=O)n1C` [Hexazinone] is more than 100 µM; for `Cc1oc(-c2ccccc2)nc1CCOc1cccc2c1ccn2CCC(=O)O` [PD-0333941] it is 18.9 µM; for `O=C(CCN1CCN2CCCC2C1)N1c2ccccc2Sc2ccc(Cl)cc21` (stereo not drawn) [Azaclorzine] it is 14.6 µM.
In the case of `O=C(OC[C@H]1O[C@](O)(COC(=O)c2cccnc2)[C@@H](OC(=O)c2cccnc2)[C@@H]1OC(=O)c1cccnc1)c1cccnc1` [Nicofuranose], the CC50 at 24 h (AC50 (uM) modified / 1000) is more than 50 µM.
Take `O=[N+]([O-])c1ccc(CCO)cc1` [2-(4-Nitrophenyl)ethanol]: the 50% cytotoxic concentration (CC50) at 24 h (AC50 (uM) modified / 1000) was more than 90 µM.
The same measure, in the same setting: then `CC1(C)CCC(NC(=O)[C@@H](N)CCC(=O)O)CC1` [Neboglamine], with more than 50 µM.
Same read-out and setting: then `[H]/N=C(/N)NS(=O)(=O)c1ccc(N)cc1` [Sulfaguanidine], with more than 20 µM; and `c1cnccn1` [Pyrazine], with more than 90 µM.
On to `CCCCCCOC(=O)CCCCC` [Hexyl hexanoate], for which the half-maximal cytotoxic concentration (CC50) at 24 h (AC50 (uM) modified / 1000) is more than 90 µM.
On the same count and under the same terms, then `O=C=Nc1ccc(Cc2ccc(N=C=O)cc2)cc1` [4,4'-Diphenylmethane diisocyanate], with more than 90 µM.
Same read-out and setting: the figure for `CC1CCN(CCCC(=O)c2ccc(F)cc2)CC1` [Methylperone] is more than 50 µM.
The same measure, in the same setting: the figure for `OC/C=C/c1ccccc1` [3-Phenyl-2-propen-1-ol] is more than 100 µM; for `CCN(CC)CCNC(=O)c1ccc(N)cc1` [Procainamide hydrochloride] it is more than 90 µM.
For `CCSC(=O)N1CCCCCC1` [Molinate], the CC50 at 24 h (AC50 (uM) modified / 1000) was more than 90 µM.
Still for that read-out and setting: then `CC(C)[C@H](Nc1ccc(C(F)(F)F)cc1Cl)C(=O)OC(C#N)c1cccc(Oc2ccccc2)c1` (stereo partly drawn) [Fluvalinate], with more than 90 µM; and `Cc1ccccc1C(N)=O` [2-Methylbenzamide], with more than 90 µM; and `NC[C@H]1O[C@H](O[C@H]2[C@H](O)[C@@H](O[C@H]3O[C@H](CO)[C@@H](O)[C@H](N)[C@H]3O)[C@H](N)C[C@@H]2N)[C@H](N)[C@@H](O)[C@@H]1O` [Bekanamycin sulfate], with more than 50 µM.
For the compound `Nc1cc(Cl)cc(C(=O)O)c1Cl` [Chloramben], under “AC50 (uM) modified / 1000”, the 50% cytotoxic concentration (CC50) at 24 h was more than 90 µM.
Where the note is “AC50 (uM) modified / 1000”, `O[C@@H](c1cc(C(F)(F)F)nc2c(C(F)(F)F)cccc12)[C@H]1CCCCN1` [Mefloquine hydrochloride] displayed a half-maximal cytotoxic concentration (CC50) at 24 h of 5.17 µM.
For `NS(=O)(=O)c1cc2c(cc1Cl)NCNS2(=O)=O` [Hydrochlorothiazide], under “AC50 (uM) modified / 1000”, the CC50 at 24 h was more than 90 µM.
Still for that read-out and setting: then `CCCCCC[C@@H](O)C/C=C\CCCCCCCC(=O)OC` [Methyl ricinoleate], with more than 90 µM; and `CCCCCCn1cc[n+](C)c1` [1-Hexyl-3-methylimidazolium trifluoromethanesulfonate], with more than 90 µM; and `c1ccc2c(c1)Nc1ccccc1S2` [Phenothiazine], with more than 90 µM.
In turn, `CC(C)CC(C)Nc1ccc(Nc2ccccc2)cc1` (stereo not drawn) [N-(1,3-Dimethylbutyl)-N'-phenyl-p-phenylenediamine] had a 50% cytotoxic concentration (CC50) at 24 h (AC50 (uM) modified / 1000) of 39 µM.
On to `CC1=C(C=O)C(C)(C)CC=C1` [Safranal], for which, where the note is “AC50 (uM) modified / 1000”, the cytotoxic concentration (CC50) at 24 h is more than 100 µM.
For the compound `CC(=O)C(=O)CC(C)C` [5-Methyl-2,3-hexanedione], for the setting “AC50 (uM) modified / 1000”, the CC50 at 24 h is more than 90 µM.
`O=C(OCCOCCOCCOC(=O)c1ccccc1)c1ccccc1` [Triethylene glycol dibenzoate] had a half-maximal cytotoxic concentration (CC50) at 24 h (AC50 (uM) modified / 1000) of more than 90 µM.
In turn, `O=C(OC(=O)c1ccccc1)c1ccccc1` [Benzoic anhydride] had a cytotoxic concentration (CC50) at 24 h (AC50 (uM) modified / 1000) of more than 90 µM.
Where the note is “AC50 (uM) modified / 1000”, `O=C(O)/C=C/c1ccc(/C=C/C(=O)O)cc1` [3,3'-(1,4-Phenylene)bis-2-propenoic acid] registered a 50% cytotoxic concentration (CC50) at 24 h of more than 50 µM.
Where the note is “AC50 (uM) modified / 1000”, `O=C1c2ccccc2CN2C(=O)c3ccccc3CN12` [Diftalone] had a 50% cytotoxic concentration (CC50) at 24 h of more than 50 µM.
With `CCN(CC)C1CCCCC1` [N,N-Diethylcyclohexylamine], the CC50 at 24 h (AC50 (uM) modified / 1000) was more than 90 µM.
Where the note is “AC50 (uM) modified / 1000”, `CC(C)=CCC/C(C)=C\CO` [(2Z)-3,7-Dimethylocta-2,6-dien-1-ol] showed a half-maximal cytotoxic concentration (CC50) at 24 h of more than 90 µM.
The compound `C[C@H]1CNCCc2ccc(Cl)cc21` [Lorcaserin] gave a CC50 at 24 h (AC50 (uM) modified / 1000, Tox21_110001=Tox21_113018, viability, 1 nM T3 present, 24 h) of more than 50 µM.
In turn, `CCCCCCCCCCCCCCO` [1-Tetradecanol] showed a CC50 at 24 h (AC50 (uM) modified / 1000) of more than 90 µM.
Turning to `CC1(C)S[C@@H]2[C@H](NC(=O)C(C(=O)O)c3ccsc3)C(=O)N2[C@H]1C(=O)O` (stereo partly drawn) [Ticarcillin disodium], where the note is “AC50 (uM) modified / 1000”, the half-maximal cytotoxic concentration (CC50) at 24 h is more than 50 µM.
For `COc1ccc2cc1Oc1ccc(cc1)C[C@H]1c3c(cc4c(c3Oc3cc5c(cc3OC)CCN(C)[C@@H]5C2)OCO4)CCN1C` [Cepharanthine], for the setting “AC50 (uM) modified / 1000”, the CC50 at 24 h is 12.3 µM.
`C1OCOCO1` [1,3,5-Trioxane]: for the setting “AC50 (uM) modified / 1000”, the CC50 at 24 h was more than 90 µM.
As to `CC(C1CC1)C(O)(Cn1cncn1)c1ccc(Cl)cc1` (stereo not drawn) [Cyproconazole], for the setting “AC50 (uM) modified / 1000”, the cytotoxic concentration (CC50) at 24 h is more than 90 µM.
The same measure, in the same setting: the figure for `O=C(O)c1ccc(OCCCOc2ccc(C(=O)O)cc2)cc1` [1,3-Bis(4-carboxyphenoxy)propane] is more than 50 µM; for `CCCCCC=CCC1CC(=O)OC1=O` (stereo not drawn) [2-Octen-1-ylsuccinic anhydride] it is more than 90 µM; for `Cc1occc1S` [2-Methyl-3-furanthiol] it is more than 90 µM.
The same measure, in the same setting: the figure for `CCOc1ccc(N=Nc2ccc(/C=C/c3ccc(N=Nc4ccc(OCC)cc4)cc3S(=O)(=O)O)c(S(=O)(=O)O)c2)cc1` [C.I. Direct Yellow 12] is 42.7 µM; for `CS(=O)(=O)OCCCCOS(C)(=O)=O` [Busulfan] it is more than 90 µM.
Still for that read-out and setting: the figure for `Cc1c(-c2ccc(O)cc2)n(Cc2ccc(OCCN3CCCCCC3)cc2)c2ccc(O)cc12` [Bazedoxifene acetate] is 8.31 µM; for `Cc1ccc2ccc3cccc4ccc1c2c34` [1-Methylpyrene] it is more than 90 µM; for `OC[C@H]1O[C@@H](O[C@H]2[C@H](O)[C@@H](O)C(O)O[C@@H]2CO)[C@H](O)[C@@H](O)[C@H]1O` (stereo partly drawn) [Lactose] it is more than 90 µM.
Consider `C=CCC1([C@@H](C)CCC)C(=O)NC(=O)NC1=O` [S-(-)-Secobarbital], for which the CC50 at 24 h (AC50 (uM) modified / 1000) is more than 90 µM.
The compound `CN(C)CCCN1c2ccccc2Sc2ccccc21` [Promazine hydrochloride] displayed a CC50 at 24 h (AC50 (uM) modified / 1000) of 4.95 µM.
As for `CCC(C)c1ccc(O)cc1` (stereo not drawn) [4-(Butan-2-yl)phenol], for the setting “AC50 (uM) modified / 1000”, the midpoint of cytotoxicity, the CC50 at 24 h, lay at 61.9 µM.
For the compound `O=[N+]([O-])c1cc(C2CCCCC2)c(O)c([N+](=O)[O-])c1` [Dinex], where the note is “AC50 (uM) modified / 1000”, the half-maximal cytotoxic concentration (CC50) at 24 h stood at 8.98 µM.
Same read-out and setting: the figure for `CC(=O)Nc1ccn(C2COC(COC(=O)c3ccccc3)O2)c(=O)n1` (stereo not drawn) [{4-[4-(Acetylamino)-2-oxopyrimidin-1(2H)-yl]-1,3-dioxolan-2-yl}methyl benzoate] is more than 50 µM; for `COc1cc(Nc2c(C#N)cnc3cc(OCCCN4CCN(C)CC4)c(OC)cc23)c(Cl)cc1Cl` [Bosutinib methanoate] it is 8.85 µM.
Compound `CC(=O)OCc1ccc2c(c1)OCO2` [Piperonyl acetate] yielded a cytotoxic concentration (CC50) at 24 h (AC50 (uM) modified / 1000) of more than 90 µM.
Compound `COc1cccc(O)c1O` [3-Methoxycatechol] yielded a 50% cytotoxic concentration (CC50) at 24 h (AC50 (uM) modified / 1000) of 70.4 µM.
Still for that read-out and setting: the figure for `O=C(O)C[C@H](O)C[C@H](O)/C=C/c1c(C2CC2)nc2ccccc2c1-c1ccc(F)cc1` [Pitavastatin calcium] is more than 50 µM.
For the setting “AC50 (uM) modified / 1000”, `CCCCCCCCOCCC#N` [3-(Octyloxy)propanenitrile] yielded a CC50 at 24 h of more than 90 µM.
Turning to `CCCCNC(=S)NCCCC` [N,N'-Dibutylthiourea], the CC50 at 24 h (AC50 (uM) modified / 1000) is more than 90 µM.
Where the note is “AC50 (uM) modified / 1000”, `C=CCCC#N` [4-Pentenenitrile] yielded a 50% cytotoxic concentration (CC50) at 24 h of more than 90 µM.
The same measure, in the same setting: then `Cc1ccsc1C(=CCCN1CCC[C@@H](C(=O)O)C1)c1sccc1C` [Tiagabine hydrochloride], with more than 50 µM; and `CCCC(CCC)C(N)=O` [Valpromide], with more than 50 µM; and `Nc1nc(/C(=C/CC(=O)O)C(=O)N[C@@H]2C(=O)N3C(C(=O)O)=CCS[C@H]23)cs1` [Ceftibuten], with more than 50 µM.
Compound `O=C1c2ccccc2C(=O)c2cc(Cl)ccc21` [2-Chloroanthraquinone] showed a CC50 at 24 h (AC50 (uM) modified / 1000) of more than 5 µM.
For the compound `C(COCC1CO1)OCC1CO1` (stereo not drawn) [Ethylene glycol diglycidyl ether], for the setting “AC50 (uM) modified / 1000”, the CC50 at 24 h is more than 90 µM.
As for `COS(=O)(=O)O` [Sodium methyl sulfate], where the note is “AC50 (uM) modified / 1000”, the CC50 at 24 h was more than 90 µM.
Same read-out and setting: then `Cc1cc(O)c2ccccc2c1O` [Menadiol], with 37.2 µM.
Under “AC50 (uM) modified / 1000”, `CCC(O)c1ccccc1` (stereo not drawn) [1-Phenyl-1-propanol] gave a cytotoxic concentration (CC50) at 24 h of more than 50 µM.
In turn, `COc1c2occc2cc2ccc(=O)oc12` [8-Methoxypsoralen] yielded a CC50 at 24 h (AC50 (uM) modified / 1000) of more than 50 µM.
The same measure, in the same setting: the figure for `OC1CCCCC1` [Cyclohexanol] is more than 100 µM.
`CCCC(Cn1cncn1)c1ccc(Cl)cc1Cl` (stereo not drawn) [Penconazole] returned a cytotoxic concentration (CC50) at 24 h (AC50 (uM) modified / 1000) of 78.4 µM.
Compound `CC1(C)CCC(C)(C)c2cc(C(=O)Nc3ccc(C(=O)O)cc3)ccc21` [AM580] yielded a CC50 at 24 h (AC50 (uM) modified / 1000) of 66.2 µM.
As to `CC(=O)OCC(=O)Nc1cc(C#N)cc(NC(=O)COC(C)=O)c1Cl` [Acreozast], the cytotoxic concentration (CC50) at 24 h (AC50 (uM) modified / 1000) was more than 50 µM.
As to `CNCCC=C1c2ccccc2CCc2ccccc21` [Nortriptyline hydrochloride], it took 12.6 µM to reach half-maximal cytotoxicity (AC50 (uM) modified / 1000) (CC50 at 24 h).
With `O=C(O)CCC/C=C\C[C@@H]1[C@@H](/C=C/[C@@H](O)COc2cccc(C(F)(F)F)c2)[C@H](O)C[C@@H]1O` (racemic) [Fluprostenol], under “AC50 (uM) modified / 1000”, the half-maximal cytotoxic concentration (CC50) at 24 h was more than 50 µM.
As to `CCCCCCCCCCOC(=O)c1ccccc1C(=O)OCCCCCCCC` [Octyl decyl phthalate], the CC50 at 24 h (AC50 (uM) modified / 1000) was more than 90 µM.
As for `CNC(=O)N(C)c1nc2ccccc2s1` [Methabenzthiazuron], the half-maximal cytotoxic concentration (CC50) at 24 h (AC50 (uM) modified / 1000) was more than 90 µM.
Still for that read-out and setting: then `Cc1ccc2ccccc2c1[N+](=O)[O-]` [1-Nitro-2-methylnaphthalene], with more than 90 µM; and `CCNc1nc(NC(C)CC)nc(OC)n1` (stereo not drawn) [Secbumeton], with more than 90 µM.

For the origin of these results see publication PMC6792352, “Limited Chemical Structural Diversity Found to Modulate Thyroid Hormone Receptor in the Tox21 Chemical Library” (Environmental Health Perspectives, 2019).
